Measured values: patent US20070190544A1, “Methods of screening for resistance to microtuble-targeting drugs” (Emory University, priority 2005, published 2007)
Entries after “also recorded” stand apart in the source; their conditions may differ. Blank lines part the entries; values can stand above or below the molecule they belong to.

Columns and labels:
[1] = test system: 1A9 cells; assay: cells; format: cell-based, human; conditions: parental 1A9 cells, 72 hour exposure to the drug
Protocol: (§1) The epothilone A resistant cell line, 1A9-A8, was selected from the human ovarian carcinoma 1A9 cells as described by Giannakakou et al. ((2000) Proc. Natl. Acad. Sci. USA 97:2904-2909). The 1A9-A8^E clone (expressing both wt and mutant alleles) was an intermediate isolate in the selection process of 1A9-A8 (mutant allele only) cells. These cells were cultured in RPMI 1640 medium (Cellgro, Herndon, Va.) supplemented with 10% fetal bovine serum (Invitrogen, Carlsbad, Calif.) and 1% Penicillin-Streptomycin (Cellgro), and grown as monolayers at 37° C. in a 5% CO2 tissue culture incubator. The mouse monoclonal anti-α-tubulin (DM1α) antibody used is from Sigma Chemical Co. (St. Louis, Mo.). Both epothilones A and B were a generous gift from the laboratory of K. C. Nicolaou (The Scripps Research Institute, La Jolla, Calif.). Paclitaxel (Taxol®) was purchased from Sigma Chemical Co. and vincristine from Eli-Lilly (Indianapolis, Ind.).
(§2) Cytotoxicity assays using the protein-staining sulforhodamine B (SRB) method were performed in 96-well plates, as described by Giannakakou et al. ((1997) J. Biol. Chem. 272:17118-17125).

[2] = test system: 1A9-A8 cells; assay: cells; format: cell-based, human; conditions: for IC50: 1A9-A8 cells, 72 hour exposure to the drug; for Relative Resistance (1A9-A8): ratio of IC50 against 1A9-A8 divided by IC50 against parental 1A9
Protocol: as §1, §2

[3] = test system: 1A9-A8^E cells; assay: cells; format: cell-based, human; conditions: for IC50: 1A9-A8^E cells, 72 hour exposure to the drug; for resistance of early-step isolate 1A9-A8^E to the selecting agent: growth inhibition assays, versus parental 1A9; for Relative Resistance (1A9-A8^E): ratio of IC50 against 1A9-A8^E divided by IC50 against parental 1A9
Protocol: as §1, §2

[4] = biological target: T1, tubulin (Homo sapiens, UniProt P07437); assay: Cell-based tubulin polymerization assay, 1A9 cells
T1 construct: endogenous in cells; host or cells: 1A9 human ovarian carcinoma cells
T1 sequence (P68363 whole entry): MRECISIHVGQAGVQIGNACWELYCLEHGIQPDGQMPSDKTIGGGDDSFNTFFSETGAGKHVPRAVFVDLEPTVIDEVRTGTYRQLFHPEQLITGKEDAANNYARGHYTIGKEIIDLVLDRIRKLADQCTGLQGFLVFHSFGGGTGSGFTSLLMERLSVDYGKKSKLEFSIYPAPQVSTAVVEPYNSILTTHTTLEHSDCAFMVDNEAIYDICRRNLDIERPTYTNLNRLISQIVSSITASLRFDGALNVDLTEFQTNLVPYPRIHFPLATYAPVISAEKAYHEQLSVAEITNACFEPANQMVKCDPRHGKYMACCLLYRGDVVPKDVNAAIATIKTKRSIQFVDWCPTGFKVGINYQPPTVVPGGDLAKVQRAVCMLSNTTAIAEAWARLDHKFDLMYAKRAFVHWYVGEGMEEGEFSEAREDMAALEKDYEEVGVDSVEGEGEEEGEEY
T1 sequence (P07437 whole entry): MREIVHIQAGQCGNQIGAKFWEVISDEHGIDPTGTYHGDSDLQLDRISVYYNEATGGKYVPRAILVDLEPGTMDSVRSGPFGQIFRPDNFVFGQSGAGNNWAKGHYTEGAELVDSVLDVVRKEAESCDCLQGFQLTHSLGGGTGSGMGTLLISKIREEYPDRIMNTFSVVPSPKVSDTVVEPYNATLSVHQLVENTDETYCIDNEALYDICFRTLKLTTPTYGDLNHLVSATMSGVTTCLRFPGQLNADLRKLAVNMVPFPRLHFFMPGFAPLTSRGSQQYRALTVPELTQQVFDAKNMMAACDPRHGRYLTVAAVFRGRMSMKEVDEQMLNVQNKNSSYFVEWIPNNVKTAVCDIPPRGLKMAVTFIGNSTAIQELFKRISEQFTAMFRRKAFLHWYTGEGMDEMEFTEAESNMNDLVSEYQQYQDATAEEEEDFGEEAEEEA
Protocol: (§3) Drug-sensitive parental 1A9 (top panel) and the Epo A-resistant clones, 1A9/A8 and 1A9/A8E (lower panel), were treated for 5 hours with or without (0) various concentrations of Epo A as indicated. After cell lysis, the polymerized (P) and the soluble (S) protein fractions were separated by centrifugation, resolved by SDS/PAGE, and immunoblotted with an antibody against alpha-tubulin. The percent of polymerized tubulin (% P) was determined by dividing the densitometric value of polymerized tubulin by the total tubulin content (the sum of P plus S). The results shown are from a representative experiment of four independent observations.
(§4) In order to examine whether the tubulin gene status correlates with the ability of epothilone to induce tubulin polymerization in the three related cell lines (1A9, 1A9-A8, and 1A9-A8^E), cell-based tubulin polymerization assays were performed (FIG. 1). After treating the cells with escalating doses of Epo A, the cells were harvested in a low salt buffer and then centrifuged to separate the pellet fraction containing the polymerized form of tubulin, from the supernatant that contains the soluble form of tubulin. […]
(§5) Quantitation of the degree of in vivo tubulin polymerization in response to Epothilone A was performed as described by Giannakakou et al. ((1997) J. Biol. Chem. 272:17118-17125). […]

[5] = test system: tubulin; assay: Cell-based tubulin polymerization assay, 1A9-A8^E cells; design: species or system human
Protocol: as §3, §4, §5

[6] = biological target: T2, tubulin (Homo sapiens, UniProt P07437, T274I); assay: Cell-based tubulin polymerization assay, 1A9-A8 cells
T2 construct: endogenous in cells; host or cells: 1A9-A8 cells (late-step epothilone A-resistant clone of 1A9)
T2 sequence (P07437 whole entry T274I): as the sequence (P07437 whole entry) above, with T274I counted along it
T2 sequence (P68363 whole entry partner): as the sequence (P68363 whole entry) above
Protocol: as §3, §4, §5

[7] = test system: 1A9 cells; assay: Mitotic index analysis, 1A9 cells; format: cell-based, human; conditions: 24 hr
Protocol: (§6) Cells were plated on glass coverslips and treated with drugs for 24 hours. Cells were fixed with ice-cold methanol and DNA was stained with Sytox Green (Molecular Probes, Eugene, Oreg.). Epifluorescence microscopy was used to count a minimum of 500 cells per drug treatment and mitotic figures were scored.

[8] = test system: 1A9-A8^E cells; assay: Mitotic index analysis, 1A9-A8^E cells; format: cell-based, human; conditions: 24 hr
Protocol: as §6

[9] = test system: 1A9-A8 cells; assay: Mitotic index analysis, 1A9-A8 cells; format: cell-based, human; conditions: 24 hr
Protocol: as §6

[10] = test system: 1A9 cells; assay: Cell cycle analysis by flow cytometry (G2/M arrest), 1A9 cells; format: cell-based, human
Protocol: (§7) Cell cycle analysis by flow cytometry was performed in the parental 1A9 and the 1A9-Epo^R clones, following overnight treatment with Epo A or Vincristine (VCR) as indicated. […] 10,000 events were recorded for each condition, the histogram is representative of three independent experiments.
(§8) Cells were plated in 6-well plates. The following day, they were treated with various concentrations of epothilone A and vincristine for 18 hours. Following treatment, both adherent and floating cells were harvested and pelleted by centrifugation. Cell pellets were suspended in 1 ml of 0.1 mg/ml propidium iodide containing 0.6% NP40 (ICN Pharmaceuticals, Costa Mesa, Calif.) with 1 mg/ml RNase A (Sigma Chemical Co.), then incubated in the dark at room temperature for 30 minutes. Data acquisition and analysis were performed on a FACScan instrument equipped with CellQuest software (Becton Dickinson Immunocytometry Systems, Franklin Lakes, N.J.). Cell cycle analysis was performed with Flowjo (Treestar). All cell cycle experiments were performed at least three times.

[11] = test system: 1A9-A8^E cells; assay: Cell cycle analysis by flow cytometry (G2/M arrest), 1A9-A8^E cells; format: cell-based, human
Protocol: as §7, §8

[12] = test system: 1A9-A8 cells; assay: Cell cycle analysis by flow cytometry (G2/M arrest), 1A9-A8 cells; format: cell-based, human
Protocol: as §7, §8

[13] = test system: human epidermoid carcinoma cell line; conditions: Thr274Pro β-tubulin mutation; cited from earlier work
[14] = test system: 1A9/B10 ovarian cancer cells; conditions: βArg282Gln mutation, EpoB-selected 1A9/B10 cells; cited from earlier work
[15] = test system: KB-3-1 epidermal cells; conditions: Asp26Glu β-tubulin mutation; cited from earlier work
[16] = test system: human ovarian cancer clones; conditions: two Taxol-selected ovarian clones, Phe270Val and Ala364Thr; cited from earlier work
[17] = test system: human breast cancer cells; conditions: Glu198Gly β-tubulin mutation; cited from earlier work
[18] = test system: epothilone-resistant human ovarian cancer cell lines; conditions: Thr274Ile and Arg282Gln epothilone-selected ovarian lines; cited from earlier work
[19] = test system: non-small cell lung cancer (NSCLC), Hela, and human leukemia cells; conditions: Gln292Glu β-tubulin mutation; cited from earlier work

Structure (SMILES): C/C(=C\c1csc(C)n1)[C@@H]1C[C@@H]2O[C@@H]2CCC[C@H](C)[C@H](O)[C@@H](C)C(=O)C(C)(C)[C@@H](O)CC(=O)O1 [Epothilone A]
IC50 [1]: 3.2 nM
IC50 [2]: 125 nM
resistance of late-step 1A9-A8 clone to the selecting agent ([2]; growth inhibition assays, versus parental 1A9): 40 fold
Relative Resistance (1A9-A8) [2]: 39
IC50 [3]: 32 nM
resistance of early-step isolate 1A9-A8^E to the selecting agent [3]: 10 fold
resistance of early-step isolate 1A9-A8^E to the selecting agent ([3]; listed as Epo A): ten-fold
Relative Resistance (1A9-A8^E) [3]: 10
effect on tubulin polymerization ([4]; 1A9 cells, escalating doses): dose-dependent increase in tubulin polymerization
percent of polymerized tubulin (% P) ([4]; parental 1A9 cells, 150 nM): 90%
effect on tubulin polymerization ([5]; 1A9-A8^E cells, escalating doses): intermediate degree of tubulin polymerization
percent of polymerized tubulin (% P) ([5]; early-step 1A9-A8^E cells, 150 nM): 70%
effect on tubulin polymerization ([6]; 1A9-A8 cells, up to highest drug concentration (1500 nM)): almost no effect on tubulin polymerization
percent of polymerized tubulin (% P) ([6]; late-step 1A9-A8 cells, 150 nM): 3%
Mitotic Index (%) ([7]; 10 nM): 82%
Mitotic Index (%) ([7]; 100 nM): 96%
Mitotic Index (%) ([8]; 10 nM): 39%
Mitotic Index (%) ([8]; 100 nM): 47%
Mitotic Index (%) ([9]; 10 nM): 2.7%
Mitotic Index (%) ([9]; 100 nM): 6.1%
G2/M arrest ([10]; Epo A overnight treatment): complete G2/M arrest
G2/M arrest ([11]; Epo A overnight treatment): partially arrested in G2/M; also recorded: modest G2/M arrest
G2/M arrest ([12]; Epo A overnight treatment, even at the highest concentration): failed to arrest in mitosis; also recorded: no change was observed in the cell cycle profile
fold resistance / cross-resistance [13]: 45 fold
fold resistance / cross-resistance [14]: 57-74 fold

Structure (SMILES): C/C(=C\c1csc(C)n1)[C@@H]1C[C@@H]2O[C@]2(C)CCC[C@H](C)[C@H](O)[C@@H](C)C(=O)C(C)(C)[C@@H](O)CC(=O)O1 [Epothilone B]
IC50 [1]: 0.9 nM
IC50 [2]: 29 nM
Relative Resistance (1A9-A8) [2]: 32
IC50 [3]: 8 nM
Relative Resistance (1A9-A8^E) [3]: 9
fold resistance / cross-resistance [15]: minimal cross-resistance
fold resistance / cross-resistance [13]: 8 fold
fold resistance / cross-resistance [14]: 24-53 fold

IC50 ([2]; Homo sapiens): 15 nM
IC50 ([3]; Homo sapiens): 9 nM
Structure (SMILES): CC(=O)O[C@H]1C(=O)[C@@]2(C)[C@H]([C@H](OC(=O)c3ccccc3)[C@]3(O)C[C@H](OC(=O)[C@H](O)[C@@H](NC(=O)c4ccccc4)c4ccccc4)C(C)=C1C3(C)C)[C@]1(OC(C)=O)CO[C@@H]1C[C@@H]2O [Paclitaxel]
IC50 ([1]; Homo sapiens): 1.5 nM
Relative Resistance (1A9-A8) [2]: 10
Relative Resistance (1A9-A8^E) [3]: 6
fold resistance (IC50 resistant line over IC50 parental line) [16]: 30 fold
fold resistance / cross resistance [17]: 17 fold
fold resistance / cross-resistance [15]: 18 fold
cross-resistance [18]: 7-10 fold
fold resistance / cross-resistance [13]: 96 fold
fold resistance / cross-resistance [19]: 22 fold

Structure (SMILES): CC(=O)O[C@@]12CO[C@@H]1C[C@H](O)[C@@]1(C)C(=O)[C@H](O)C3=C(C)[C@@H](OC(=O)[C@H](O)[C@@H](NC(=O)OC(C)(C)C)c4ccccc4)C[C@@](O)([C@@H](OC(=O)c4ccccc4)[C@H]21)C3(C)C [Taxotere]
fold resistance / cross resistance [17]: some cross resistance
fold resistance / cross-resistance [15]: 10 fold
fold resistance / cross-resistance [19]: 13 fold

Structure (SMILES): CC[C@]1(O)C[C@H]2CN(CCc3c([nH]c4ccccc34)[C@@](C(=O)OC)(c3cc4c(cc3OC)N(C=O)[C@H]3[C@@](O)(C(=O)OC)[C@H](OC(C)=O)[C@]5(CC)C=CCN6CC[C@]43[C@@H]65)C2)C1 [Vincristine]
G2/M arrest ([10]; 10 nM): G2/M arrest
G2/M arrest ([11]; 10 nM): arrested in G2/M
G2/M arrest ([11]; 10 nM, listed as vincristine): G2/M arrest
G2/M arrest ([12]; 10 nM): arrested in G2/M
G2/M arrest ([12]; 10 nM, listed as vincristine): G2/M arrest
